Activity calls are given as the source filed them. The rule behind the calls is not given here.
What was measured:
[1] = target: Aldo-keto reductase family 1 member B1 (Rattus norvegicus) (UniProt P07943); experiment: Inhibition of Rattus norvegicus albino (rat) kidney aldose reductase using D-L-glyceraldehyde as substrate assessed as decrease in NADPH level measured for 5 min by spectrophotometric analysis
[2] = system: Liver; experiment: Antioxidant activity in Rattus norvegicus (rat) liver assessed as DPPH free radical scavenging activity at 10^-3 to 10^-4 M; format: functional, tissue-based
[3] = system: Liver; experiment: Antioxidant activity in Rattus norvegicus (rat) liver assessed as superoxide anion scavenging activity at 10^-3 to 10^-4 M; format: functional, tissue-based

Structure (SMILES)	inhibition [1]	Activity [2]	Activity [3]
O=[N+]([O-])c1cc(-c2cc3ccccc3[nH]2)ccc1Cl	5.29%	Active	Active
Nc1ccc(-c2[nH]c3ccccc3c2C=O)cc1	inactive	inactive	inactive
O=[N+]([O-])c1cc([N+](=O)[O-])c2[nH]c(-c3ccccc3)cc2c1	inactive	Active	Active
Fc1ccc(-c2cc3ccccc3[nH]2)cc1	inactive	inactive	Active
O=Cc1c(-c2ccccc2)[nH]c2ccccc12	7.64%	inactive	inactive
c1ccc(-c2cc3ccccc3[nH]2)cc1	inactive	inactive	inactive
Nc1ccc(-c2cc3ccccc3[nH]2)cc1	11%	Active	Active
O=Cc1c(-c2ccc(Cl)c([N+](=O)[O-])c2)[nH]c2ccccc12	inactive	inactive	inactive
O=Cc1c(-c2ccc(Cl)cc2)[nH]c2ccccc12	inactive	inactive	inactive
Clc1ccc(-c2cc3ccccc3[nH]2)cc1Cl	inactive	inactive	Active
Clc1ccc(-c2cc3ccccc3[nH]2)cc1	inactive	inactive	Active
O=Cc1c(-c2ccc(F)cc2)[nH]c2ccccc12	inactive	inactive	inactive

Reference: ChEMBL document CHEMBL3045581, “Preliminary evaluation of rat kidney aldose reductase inhibitory activity of 2-phenylindole derivatives: affiliation to antioxidant activity” (Med Chem Res, 2007)
